Data taken from PubChem BioAssay AID1159564 (GlaxoSmithKline (GSK), 2015).
The source made the active and inactive calls. How the calls were made is not given here.

Tested on: L. donovani-infected THP-1 macrophages, intracellular amastigote imaging
Experiment: antileishmanial activity in infected THP-1 macrophages – imaging, THP-1 host macrophages, host toxicity (AID 1159564)
[1] = measured here: THP-1 host cell toxicity
[2] = measured here: amastigotes per macrophage

| SMILES | IC50 | IC50 [1] [µM] | IC50 [2] [µM] |
| --- | --- | --- | --- |
| COc1ccc(C(=O)NC2CCN(CCn3c(=O)ccc4ncc(F)cc43)CC2)cc1Cl | > 50 µM (inactive) | > 50 | 16 |
| Cc1nn(-c2nc3ccccc3s2)c2c1C(c1ccc(OCC(N)=O)cc1)SCC(=O)N2 (configuration not stated) | > 50 µM (inactive) | > 50 | > 50 |
| CN(C)Cc1cccc(Nc2nccc(-c3ccc(NCCN)c(C#N)c3)n2)c1 | 1.3 µM | 6.3 | 0.5 |
| NCC(Cc1ccccc1)NC(=O)c1cnc(-c2c[nH]c3ncccc23)s1 (configuration not stated) | 16 µM | 6.3 | 13 |
| Cc1cccc(NS(=O)(=O)c2ccc3c(c2)C(=O)c2cc(S(=O)(=O)Nc4cccc(C)c4C)ccc2-3)c1C | > 50 µM (inactive) | > 50 | > 50 |
| COc1ccc(Nc2nc(-c3ccccn3)cc(N3CCCC(O)C3)n2)cc1 (configuration not stated) | 1 µM | 25 | 0.79 |
| CCC(CC)C(=O)Nc1cccc(C(=O)Nc2nnc(C3CCCCC3)s2)c1 | > 50 µM (inactive) | > 50 | > 50 |
| Cc1cc(NC(=O)C2CC2)ccc1OC1CCN(Cc2ccco2)CC1 | 20 µM | 13 | 13 |
| Cc1cccnc1CN1CCN(CCCOc2ccc(-c3ccc(C(N)=O)cc3)cc2)CC1 | 32 µM | 13 | 10 |
| CN(C)Cc1ccc(N2CCC(NS(=O)(=O)c3ccc(Cl)cc3)CC2)cc1 | > 50 µM (inactive) | 25 | 25 |
| COCCn1c(-c2ccc3c(c2)OCO3)cnc1NCc1ccccc1OC | 10 µM | 40 | 5 |
| COc1ccc(C2=NCC(CSc3nnc(-c4ccc5c(c4)OCO5)o3)S2)cc1 (configuration not stated) | 1 µM | > 50 | 0.4 |
| O=C(COc1ncnc2cc([N+](=O)[O-])ccc12)NC(=O)NC1CCCCC1 | > 50 µM (inactive) | > 50 | > 50 |
| CCn1c(-c2nonc2N)nc2c([C@@H](C)O)ncc(O[C@H](CN)c3ccccc3)c21 | 5 µM | 3.2 | 3.2 |
| CCn1c(NC(=O)Cc2ccc(F)cc2)nc2ccccc21 | 10 µM | > 50 | 6.3 |
| Cc1nn(-c2nc3ccccc3[nH]2)c2c1C(c1ccc(O)cc1)CC(=O)N2 (configuration not stated) | 1 µM | 6.3 | 0.5 |
| c1ccc2sc(Nc3nc4ncccc4[nH]3)nc2c1 | 2.5 µM | 16 | 1.3 |
| COc1cc(C(C)C)c(S(C)(=O)=O)cc1C(=O)N1CCN(c2ccccc2Cl)CC1 | 16 µM | 16 | 13 |
| COc1ccc(-c2nc3ncccc3o2)cc1NC(=O)c1cccs1 | > 50 µM (inactive) | 20 | > 50 |
| CCOC(=O)c1cn[nH]c1S(=O)(=O)N1CCC1c1ccccc1 (configuration not stated) | > 50 µM (inactive) | > 50 | > 50 |
| CCC(CC)C(=O)Nc1ccc(-c2nnc(-c3ccc(OC)cc3)o2)cc1 | > 50 µM (inactive) | > 50 | > 50 |
| Cc1ccc(C)c(OC2CCN(C(=O)C(C)n3ccnc3)CC2)c1 (configuration not stated) | > 50 µM (inactive) | > 50 | 0.32 |
| O=C(Cc1ccccc1)Nc1[nH]nc2sc(C(=O)NC3CCCC3)cc12 | 3.2 µM | 1.6 | 1.6 |

| SMILES | IC50 | IC50 [1] [µM] | IC50 [2] [µM] |
| --- | --- | --- | --- |
| Cc1nc(N2CC(C)OC(C)C2)sc1C(=O)Nc1ccc2c(c1)OCO2 (configuration not stated) | 7.9 µM | > 50 | 3.2 |
| O=C(Nc1cccc(Cl)c1)N1CCCCC1c1cccnc1 (configuration not stated) | > 50 µM (inactive) | > 50 | > 50 |
| CCc1cc(C(=O)Nc2nccn2-c2ccccc2)cs1 | 13 µM | 32 | 5 |
| COc1ccc(-c2cnc(NC(=O)c3ccc(F)cc3)n2C)cc1 | 1.3 µM | > 50 | 0.5 |
| CN(Cc1ccc(C(N)=O)cc1)C(c1ccc(F)cc1)c1cccnc1 (configuration not stated) | > 50 µM (inactive) | > 50 | > 50 |
| O=C(Cn1cnc2c(-c3ccccc3)csc2c1=O)N1CCCCC1 | > 50 µM (inactive) | > 50 | > 50 |
| Cc1ccc(C)c(CN2C(=O)NC3(CCc4ccccc43)C2=O)c1 (configuration not stated) | > 50 µM (inactive) | > 50 | 16 |
| O=C(CSc1nnc(-c2ccc3c(c2)OCO3)o1)N(Cc1ccco1)CC(F)(F)F | 7.9 µM | > 50 | 3.2 |
| O=C(NCCCn1cnc2ccccc21)c1ccc(NC(=O)c2ccco2)cc1 | > 50 µM (inactive) | > 50 | 13 |
| CC(C)(C)CC(=O)NCCc1csc(-c2ccc(F)cc2)n1 | 32 µM | 16 | 16 |
| NC(=O)c1ncc(N[C@@H]2CCCNC2)nc1Nc1cccc(Cl)c1 | 0.79 µM | 2 | 0.5 |
| COc1ccccc1CNc1cc(C2CC2)nc(-c2nccn2C)n1 | 0.5 µM | 16 | 0.4 |
| Cc1ccc(-c2csc(NC(=O)C=Cc3ccc(S(=O)(=O)N4CCOCC4)cc3)n2)o1 | 5 µM | > 50 | 0.79 |
| CN(Cc1nnnn1C1CCN(Cc2ccc(-n3ccnc3)cc2)CC1)c1ccc(F)cc1F | > 50 µM (inactive) | > 50 | 16 |
| Nc1nc(-c2ccccn2)nc(-n2nc(-c3ccccc3)cc2N)n1 | 0.79 µM | 10 | 0.79 |
| CN(C)c1ccc(N)cc1CN(CC1CCCO1)S(C)(=O)=O (configuration not stated) | 13 µM | > 50 | 10 |
| Fc1ccc(Nc2nc(-c3ccccn3)cs2)cc1 | 10 µM | > 50 | 6.3 |
| Cc1ccccc1NS(=O)(=O)c1ccc2[nH]cc(C(=O)NC3CCCC(C)C3C)c(=O)c2c1 (configuration not stated) | 16 µM | 13 | 16 |
| COc1ccc(CN(C)Cc2ccncc2)cc1-c1ccc(S(=O)(=O)NC2CCC2)s1 | > 50 µM (inactive) | 20 | 16 |
| Cc1ccc(NC(=O)c2ccnc(N3CCCC3)c2)cc1-c1cc(C(N)=O)ccc1C | 40 µM | 32 | 25 |
| CCC(c1ccc(F)cc1)n1cncc1-c1cnn(C)c1 (configuration not stated) | > 50 µM (inactive) | > 50 | > 50 |
| NC(N)=Nc1nc(-c2ccc(NC(N)=NCCN3CCCC3)cc2)cs1 | > 50 µM (inactive) | > 50 | > 50 |
| CN1C(=O)c2ccccc2Sc2ccc(NC(=O)NCc3ccco3)cc21 | > 50 µM (inactive) | > 50 | 25 |

| SMILES | IC50 | IC50 [1] [µM] | IC50 [2] [µM] |
| --- | --- | --- | --- |
| O=C(CN(Cc1ccccn1)Cc1ccccn1)NCc1ccc(-c2csnn2)cc1 | 5 µM | > 79 | 5 |
| Cn1nc(-c2ccc(NC(=O)Cc3ccccc3Cl)cc2)c2c(N)ncnc21 | > 50 µM (inactive) | > 50 | > 50 |
| CCS(=O)(=O)c1cccc(C(=O)Nc2nc(-c3ccccn3)cs2)c1 | 4 µM | 20 | 3.2 |
| C[C@@H](Oc1cc(-n2cnc3ccc(C(O)CO)cc32)sc1C(N)=O)c1ccccc1C(F)(F)F (some centres not stated) | 20 µM | 16 | 13 |
| CC(c1ccccn1)N(C)Cc1nc2ccccc2n1C(C)C (configuration not stated) | 3.2 µM | 16 | 2 |
| CCCNC(=O)Nc1cccc(-c2nc3ncccc3o2)c1 | 13 µM | 20 | 16 |
| CC(=O)Nc1cccc(Nc2ncnc3nc[nH]c23)c1 | > 50 µM (inactive) | 10 | 40 |
| N#Cc1cccc(Nc2nccc(N3CCC(NS(=O)(=O)c4cccc(C#N)c4)CC3)n2)c1 | 10 µM | > 50 | 6.3 |
| CCCCCNC(=O)c1c[nH]c2ccc(S(=O)(=O)N(C)c3ccc(OCC)cc3)cc2c1=O | > 50 µM (inactive) | > 50 | > 50 |
| COc1ccc(OC)c2c(=O)c(Cc3ccccc3)c(C)[nH]c12 | 4 µM | > 50 | 2.5 |
| O=C(Nc1nc2ccccc2[nH]1)c1ccc2nc[nH]c2c1 | 5 µM | > 50 | 3.2 |
| Fc1ccc(OC2CC(NCc3cccc4cn[nH]c34)C2)cc1C(F)(F)F (configuration not stated) | 7.9 µM | 10 | 7.9 |
| Nc1nonc1-c1nc2cncc(C(=O)N3CC[C@H](N)C3)c2n1CC1CC1 | 20 µM | 13 | 40 |
| O=C(NCC1CCCCN1C(=O)c1cccc2ccccc12)c1ccccc1 (configuration not stated) | > 50 µM (inactive) | > 50 | > 50 |
| C=CCOCC1Cn2nc([N+](=O)[O-])nc2O1 (configuration not stated) | > 50 µM (inactive) | > 50 | > 50 |
| COc1ccc(OC)c(NC(=O)c2ccc([N+](=O)[O-])o2)c1 | 32 µM | 20 | 16 |
| CC(C)(C)c1csc(NC(=O)c2ccc([N+](=O)[O-])s2)n1 | 3.2 µM | > 50 | 2.5 |
| C=CCN(Cc1cccs1)C(=O)CSc1nnc(-c2ccc3c(c2)OCO3)o1 | 3.2 µM | > 50 | 1.3 |
| COc1ccc(-c2cnc(NC(=O)c3cc(-c4ccccn4)n[nH]3)n2C)cc1 | 1 µM | > 50 | 0.79 |
| Cc1cc(N2CCc3ccccc3C2)nc(Nc2ccc(S(=O)(=O)N3CCOCC3)cc2)n1 | 5 µM | 25 | 1.6 |
| CN(C)S(=O)(=O)c1cccc(CSc2nnc(-c3ccc4c(c3)OCO4)o2)c1 | 2 µM | > 50 | 0.63 |
| COc1ccc(C2CC(c3ccc(NS(C)(=O)=O)cc3)=NN2C(=O)c2cccs2)cc1OC (configuration not stated) | 5 µM | > 50 | 4 |
| O=C1COC(c2ccccc2)(c2ccccc2)CN1C1CCN(Cc2ccc(-n3ccnc3)cc2)CC1 | 16 µM | 16 | 13 |
